# According to patent publication US20150343016A1, “CHEMICAL ENTITIES AND THERAPEUTIC USES THEREOF” (The Regents of the University of Colorado, a body corporate, priority 2010, published 2015):
# Experiments:
# Det562 cells = test: CellTiter-Glo Luminescent Cell Viability Assay, Bouvardin with Taxol, Det562; assay type: cell-based, human; details: Det562
# Procedure: “Combination Index” computation. Combination Indices were calculated using CalcuSyn software (Biosoft), which uses the method of Chou and Talalay. This method first computes drug-induced effect using the Hill Equation: where E is the measured effect; C is the drug concentration; Emax is the full range of drug effect, usually at or near 100%; IC50 is the drug concentration producing the median effect of 50%; and n is the curve shape parameter describing the steepness of the concentration-effect relationship. The Chou and Talalay method then linearizes the Hill Equation by logarithmic transformation as: where fu is the fraction of cells left unaffected after drug exposure, fa is the fraction of cells affected by the exposure, C is the drug concentration used, Cm is the concentration to achieve the median effect, and n is the curve shape parameter. Cm and n are equivalent to IC50 and n, respectively, in the Hill Equation. The values of n (obtained from the slope), nlog(Cm) (obtained from the absolute value of the intercept), and, therefore, Cm are obtained by plotting log(fu−1−1) versus log(C). […]
# The growth inhibitory effects of Bouvardin with Taxol were evaluated using CellTiter-Glo® Luminescent Cell Viability Assay (Promega G7570). […] Luminescence of each well was measured using an automated plate reader.
# [1] = system: UM-SCC19 Head and Neck Cancer cell line; test: MTT assay, Bouvardin with ionizing radiation, UM-SCC19 (pre-treated); assay type: cell-based, human; details: UM-SCC19 cells
# Procedure: “Combination Index” computation. Combination Indices were calculated using CalcuSyn software (Biosoft), which uses the method of Chou and Talalay. This method first computes drug-induced effect using the Hill Equation: where E is the measured effect; C is the drug concentration; Emax is the full range of drug effect, usually at or near 100%; IC50 is the drug concentration producing the median effect of 50%; and n is the curve shape parameter describing the steepness of the concentration-effect relationship. The Chou and Talalay method then linearizes the Hill Equation by logarithmic transformation as: where fu is the fraction of cells left unaffected after drug exposure, fa is the fraction of cells affected by the exposure, C is the drug concentration used, Cm is the concentration to achieve the median effect, and n is the curve shape parameter. Cm and n are equivalent to IC50 and n, respectively, in the Hill Equation. The values of n (obtained from the slope), nlog(Cm) (obtained from the absolute value of the intercept), and, therefore, Cm are obtained by plotting log(fu−1−1) versus log(C). These numbers are then used to compute the Combination Index (CI) according to the formula: CI=(D)1/(Dx)1+(D)2/(Dx)2 (26). (Dx)1 and (Dx)2 are the doses required to achieve a given effect level for each treatment, i.e. a specified value of Fraction Affected or Fa. (D)1 and (D)2 are the doses of each treatment in a given combination which gives the same Fa.
# The growth inhibitory effects of Bouvardin with ionizing radiation (IR) were evaluated using a modified tetrazolium salt (MTT) assay. In the MTT assay, 1,000 to 2,000 viable cells were plated in 100 uL of growth medium in 96-well plates (Corning, Ithaca, N.Y.). Following an overnight incubation, drug was added in varying concentrations and the plates were irradiated on the same day (co-treatment) or 24 hr later (pre-treatment) and incubated for 6 to 7 days. The tetrazolium salt was added at a concentration of 0.4 mg/mL to each well following the 6- to 7-day treatment. The plates were incubated with the salt for 4 hours at 37° C. At 4 hours, the medium was aspirated off, leaving the dark blue formazan product at the bottom of the wells. The reduced MTT product was solubilized by adding […] of 0.2 N HCl in 75% isopropanol, 23% MilliQ water to each well. Thorough mixing was done using a Titertek multichannel pipetman. The absorbency of each well was measured using an automated plate reader (Molecular Devices, Sunnyvale, Calif.). All experiments were done in triplicate.
# MTT assays were used to determine the effect of Bouvardin (concentrations in uM) in combination with ionizing radiation (in Gy, X-axis). FIG. 14 depicts CI values for Bouvardin and radiation on 3 cell lines. Combination Index data from 3 different Head and Neck Cancer cell lines are shown. Black dashed lines represent a CI value of 1. CI values below 1 indicate synergy. 1586 and UM-SCC19 were pre-treated whereas HN31 was treated on the same day.
# [2] = biological target: in vitro translation in rabbit reticulocytes; test: In vitro translation assay in rabbit reticulocytes with Luciferase mRNA; assay type: biochemical
# Procedure: In vitro translation assays were performed in rabbit reticulocytes (Promega) according to manufacturer's instruction, in the presence or absence of Bouvardin at final concentrations shown. Luciferase mRNA provided in the kit was used at a final concentration of 1 ug/ul. The reactions samples were incubated for 15 minutes at 37° C. and quenched by dilution with water. Luciferase activity was measured using a plate reader Multi-Mode Microplate Reader (Synergy 2 by BioTek) immediately after luciferase substrate addition. Samples were also subjected to electrophoresis on SDS-polyacrylamide gels and immunoblotted with goat polyclonal α-luciferase primary antibodies (Promega) and donkey anti-goat IgG, HRP secondary antibodies (Promega). The blots were visualized using chemiluminescence detection (Pierce). (A) Luciferase activity at different concentrations of Bouvardin. Error bars show SEM from triplicate samples. (B) Luciferase protein levels in corresponding samples.
smiles,measurement,setting,value
"COc1ccc(C[C@H]2C(=O)N[C@H](C)C(=O)N(C)[C@@H]3C(=O)N(C)[C@@H](Cc4ccc(O)c(c4)Oc4ccc(cc4)[C@H]3O)C(=O)N[C@@H](C)C(=O)N[C@H](C)C(=O)N2C)cc1 (stereo in doubt) [Bouvardin, bouvardin]",interaction of Bouvardin with Taxol,Det562 cells,synergy with Taxol over a wide range of concentrations
same,Combination Index,[1]; Bouvardin 0.001 uM + 1 Gy IR,13.885
same,Fraction Affected,[1]; Bouvardin 0.001 uM + 1 Gy IR,0.143
same,Combination Index,[1]; Bouvardin 0.001 uM + 2 Gy IR,2.245
same,Fraction Affected,[1]; Bouvardin 0.001 uM + 2 Gy IR,0.28
same,Combination Index,[1]; Bouvardin 0.001 uM + 4 Gy IR,1.023
same,Fraction Affected,[1]; Bouvardin 0.001 uM + 4 Gy IR,0.386
same,Combination Index,[1]; Bouvardin 0.003 uM + 1 Gy IR,5.143
same,Fraction Affected,[1]; Bouvardin 0.003 uM + 1 Gy IR,0.227
same,Combination Index,[1]; Bouvardin 0.003 uM + 2 Gy IR,1.22
same,Fraction Affected,[1]; Bouvardin 0.003 uM + 2 Gy IR,0.366
same,Combination Index,[1]; Bouvardin 0.003 uM + 4 Gy IR,0.627
same,Fraction Affected,[1]; Bouvardin 0.003 uM + 4 Gy IR,0.466
same,Combination Index,[1]; Bouvardin 0.006 uM + 1 Gy IR,1.696
same,Fraction Affected,[1]; Bouvardin 0.006 uM + 1 Gy IR,0.354
same,Combination Index,[1]; Bouvardin 0.006 uM + 2 Gy IR,0.762
same,Fraction Affected,[1]; Bouvardin 0.006 uM + 2 Gy IR,0.448
same,Combination Index,[1]; Bouvardin 0.006 uM + 4 Gy IR,0.82
same,Fraction Affected,[1]; Bouvardin 0.006 uM + 4 Gy IR,0.461
same,Combination Index,[1]; Bouvardin 0.01 uM + 1 Gy IR,1.561
same,Fraction Affected,[1]; Bouvardin 0.01 uM + 1 Gy IR,0.395
same,Combination Index,[1]; Bouvardin 0.01 uM + 2 Gy IR,0.694
same,Fraction Affected,[1]; Bouvardin 0.01 uM + 2 Gy IR,0.49
same,Combination Index,[1]; Bouvardin 0.01 uM + 4 Gy IR,0.619
same,Fraction Affected,[1]; Bouvardin 0.01 uM + 4 Gy IR,0.521
same,Combination Index,[1]; Bouvardin 0.03 uM + 1 Gy IR,1.414
same,Fraction Affected,[1]; Bouvardin 0.03 uM + 1 Gy IR,0.44
same,Combination Index,[1]; Bouvardin 0.03 uM + 2 Gy IR,0.777
same,Fraction Affected,[1]; Bouvardin 0.03 uM + 2 Gy IR,0.511
same,Combination Index,[1]; Bouvardin 0.03 uM + 4 Gy IR,0.848
same,Fraction Affected,[1]; Bouvardin 0.03 uM + 4 Gy IR,0.515
same,Combination Index,[1]; Bouvardin 0.06 uM + 1 Gy IR,1.587
same,Fraction Affected,[1]; Bouvardin 0.06 uM + 1 Gy IR,0.431
same,Combination Index,[1]; Bouvardin 0.06 uM + 2 Gy IR,1.482
same,Fraction Affected,[1]; Bouvardin 0.06 uM + 2 Gy IR,0.444
same,Combination Index,[1]; Bouvardin 0.06 uM + 4 Gy IR,1.01
same,Fraction Affected,[1]; Bouvardin 0.06 uM + 4 Gy IR,0.498
same,Combination Index,[1]; Bouvardin 0.1 uM + 1 Gy IR,2.102
same,Fraction Affected,[1]; Bouvardin 0.1 uM + 1 Gy IR,0.437
same,Combination Index,[1]; Bouvardin 0.1 uM + 2 Gy IR,1.027
same,Fraction Affected,[1]; Bouvardin 0.1 uM + 2 Gy IR,0.518
same,Combination Index,[1]; Bouvardin 0.1 uM + 4 Gy IR,1.691
same,Fraction Affected,[1]; Bouvardin 0.1 uM + 4 Gy IR,0.473
same,Combination Index,[1]; Bouvardin 0.3 uM + 1 Gy IR,1.313
same,Fraction Affected,[1]; Bouvardin 0.3 uM + 1 Gy IR,0.523
same,Combination Index,[1]; Bouvardin 0.3 uM + 2 Gy IR,1.347
same,Fraction Affected,[1]; Bouvardin 0.3 uM + 2 Gy IR,0.524
same,Combination Index,[1]; Bouvardin 0.3 uM + 4 Gy IR,1.052
same,Fraction Affected,[1]; Bouvardin 0.3 uM + 4 Gy IR,0.558
same,Combination Index,[1]; Bouvardin 0.6 uM + 1 Gy IR,1.704
same,Fraction Affected,[1]; Bouvardin 0.6 uM + 1 Gy IR,0.532
same,Combination Index,[1]; Bouvardin 0.6 uM + 2 Gy IR,1.546
same,Fraction Affected,[1]; Bouvardin 0.6 uM + 2 Gy IR,0.545
same,Combination Index,[1]; Bouvardin 0.6 uM + 4 Gy IR,1.251
same,Fraction Affected,[1]; Bouvardin 0.6 uM + 4 Gy IR,0.573
same,Combination Index,[1]; Bouvardin 1 uM + 1 Gy IR,13.885
same,Fraction Affected,[1]; Bouvardin 1 uM + 1 Gy IR,0.143
same,Combination Index,[1]; Bouvardin 1 uM + 2 Gy IR,2.245
same,Fraction Affected,[1]; Bouvardin 1 uM + 2 Gy IR,0.28
same,Combination Index,[1]; Bouvardin 1 uM + 4 Gy IR,1.023
same,Fraction Affected,[1]; Bouvardin 1 uM + 4 Gy IR,0.386
same,IC50 in in vitro translation reactions,[2],nM range
same,effect on in vitro translation (luciferase activity and protein),[2]; 15 minutes at 37° C.,inhibits translation
